Earlier results on four compounds are cited in patent US20220395496A1 (Hoffmann-La Roche Inc., priority 2019, published 2022).

The term IC50 denotes the concentration needed to halve the response being measured.

One data set addresses T1, HEK/hTLR7 (Homo sapiens, UniProt Q9NYK1).
T1 construct: host or cells: HEK cells
T1 sequence (Q9NYK1 27-1049): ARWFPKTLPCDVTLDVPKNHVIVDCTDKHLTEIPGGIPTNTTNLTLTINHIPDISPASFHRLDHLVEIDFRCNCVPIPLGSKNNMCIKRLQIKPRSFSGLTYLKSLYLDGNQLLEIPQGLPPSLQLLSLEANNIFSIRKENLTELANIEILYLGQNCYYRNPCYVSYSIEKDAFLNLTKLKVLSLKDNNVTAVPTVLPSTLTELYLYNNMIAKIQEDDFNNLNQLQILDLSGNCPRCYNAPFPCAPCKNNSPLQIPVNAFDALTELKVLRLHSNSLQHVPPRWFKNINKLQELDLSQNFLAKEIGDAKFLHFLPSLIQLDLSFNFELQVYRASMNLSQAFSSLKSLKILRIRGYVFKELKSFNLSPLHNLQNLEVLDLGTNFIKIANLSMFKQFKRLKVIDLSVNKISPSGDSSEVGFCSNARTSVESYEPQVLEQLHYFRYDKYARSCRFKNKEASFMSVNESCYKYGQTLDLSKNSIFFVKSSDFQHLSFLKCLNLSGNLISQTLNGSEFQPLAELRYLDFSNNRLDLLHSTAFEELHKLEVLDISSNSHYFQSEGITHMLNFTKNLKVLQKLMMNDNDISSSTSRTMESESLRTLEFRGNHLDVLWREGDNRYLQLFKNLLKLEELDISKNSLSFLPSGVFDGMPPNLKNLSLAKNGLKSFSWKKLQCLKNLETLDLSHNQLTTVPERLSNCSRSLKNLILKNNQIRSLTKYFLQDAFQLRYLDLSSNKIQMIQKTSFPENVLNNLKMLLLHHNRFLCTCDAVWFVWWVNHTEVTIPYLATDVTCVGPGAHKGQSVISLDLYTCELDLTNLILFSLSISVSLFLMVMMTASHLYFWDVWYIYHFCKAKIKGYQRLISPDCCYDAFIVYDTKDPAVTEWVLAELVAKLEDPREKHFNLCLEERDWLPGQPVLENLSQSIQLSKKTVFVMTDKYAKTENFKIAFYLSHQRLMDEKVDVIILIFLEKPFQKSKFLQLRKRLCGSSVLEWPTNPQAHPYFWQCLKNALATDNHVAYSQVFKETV
As to conditions: data disclosed in WO2015057655; cited from earlier work.

For a further data set, the target named is T2, HEK/hTLR9 (Homo sapiens, UniProt Q9NR96).
T2 construct: host or cells: HEK cells
T2 sequence (Q9NR96 26-1032): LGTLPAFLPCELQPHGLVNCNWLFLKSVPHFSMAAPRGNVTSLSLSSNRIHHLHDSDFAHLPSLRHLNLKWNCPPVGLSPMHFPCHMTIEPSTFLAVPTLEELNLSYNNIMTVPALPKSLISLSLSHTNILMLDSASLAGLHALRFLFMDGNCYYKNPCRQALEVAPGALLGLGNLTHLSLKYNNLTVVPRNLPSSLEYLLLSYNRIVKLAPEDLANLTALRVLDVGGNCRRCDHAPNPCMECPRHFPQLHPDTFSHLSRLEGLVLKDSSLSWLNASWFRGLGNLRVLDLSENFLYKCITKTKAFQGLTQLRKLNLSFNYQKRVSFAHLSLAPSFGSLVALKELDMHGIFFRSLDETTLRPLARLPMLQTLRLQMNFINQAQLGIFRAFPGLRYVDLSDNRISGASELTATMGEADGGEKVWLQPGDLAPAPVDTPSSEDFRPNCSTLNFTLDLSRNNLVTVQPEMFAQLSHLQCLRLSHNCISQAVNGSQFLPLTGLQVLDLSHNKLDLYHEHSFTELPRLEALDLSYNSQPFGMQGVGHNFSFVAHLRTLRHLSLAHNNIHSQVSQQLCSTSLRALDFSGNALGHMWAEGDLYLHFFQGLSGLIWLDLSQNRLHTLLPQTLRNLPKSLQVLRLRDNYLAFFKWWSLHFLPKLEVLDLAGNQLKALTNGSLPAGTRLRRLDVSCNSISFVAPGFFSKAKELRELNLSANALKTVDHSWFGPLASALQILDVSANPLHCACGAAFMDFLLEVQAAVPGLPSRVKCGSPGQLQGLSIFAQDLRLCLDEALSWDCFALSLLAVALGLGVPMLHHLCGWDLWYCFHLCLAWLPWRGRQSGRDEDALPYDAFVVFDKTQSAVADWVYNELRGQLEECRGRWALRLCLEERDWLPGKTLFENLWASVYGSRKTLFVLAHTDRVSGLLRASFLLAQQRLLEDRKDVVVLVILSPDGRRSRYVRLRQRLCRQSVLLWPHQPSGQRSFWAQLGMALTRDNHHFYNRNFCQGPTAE
As to conditions: data disclosed in WO2015057655; cited from earlier work.

`CC(N[C@@H]1C[C@H](C)CN(c2ccc(C#N)c3ncccc23)C1)c1ccccn1` (some centres unmarked) [ER-899607]: the values for the IC50 at HEK/hTLR7 and on HEK/hTLR9 were 149 nM and more than 10000 nM, respectively.

For `C[C@H]1C[C@@H](NCc2cn(C)cn2)CN(c2ccc(C#N)c3ncccc23)C1` [ER-899552], the figures for the IC50 on HEK/hTLR7 and at HEK/hTLR9 were 207 nM and 1970 nM, respectively.

For the compound `C[C@H]1C[C@@H](NCc2ncco2)CN(c2ccc(C#N)c3ncccc23)C1` [ER-899551], the IC50 on HEK/hTLR7 was 43 nM; at HEK/hTLR9, more than 10000 nM.

With `C[C@H]1C[C@@H](NCc2ccc(C(F)(F)F)cn2)CN(c2ccc(C#N)c3ncccc23)C1` [ER-899543], the IC50 was 48 nM at HEK/hTLR7 and more than 10000 nM at HEK/hTLR9.
